Laboratory results from patent publication US7582645B2, “Pyrimidine derivatives for treatment of hyperproliferative disorders” (Bayer Pharmaceuticals Corporation, priority 2003, dated 2009).
Counter-ions that a name gives are not always drawn.

These compounds were tested on HCT116 cells (assay: HCT116 cytotoxic activity assay (Alamar Blue, 72 h)). Conditions: Homo sapiens, HCT-116, 72 h compound exposure, greater than 500 nM but less than or equal to 2 μM.
Assay type: cell-based
Method: Representative compounds of this invention were tested for cytotoxicity using the above-described assay procedure with the following results: […]

Structure (SMILES) | IC50 [nM]
CN(C)[C@H]1CCN(c2cc(Oc3ccc(Nc4cc(-c5ccccc5)nc(N)n4)cc3)ccn2)C1 [Example 144, N4*-[4-({2-[(3S)-3-(dimethylamino)pyrrolidin-1-yl]pyridin-4-yl}oxy)phenyl]-6-phenylpyrimidine-2,4-diamine] | 500 to 2000
Nc1nc(Nc2ccc(Oc3ccnc(C(F)(F)F)c3)cc2)cc(-c2ccc(NC(=O)CCC(=O)O)cc2)n1 [Example 148, 4-[(4-{2-amino-6-[(4-{[2-(trifluoromethyl)pyridin-4-yl]oxy}phenyl)amino]pyrimidin-4-yl}phenyl)amino]-4-oxobutanoic acid] | 500 to 2000
COc1ccc(-c2cc(Nc3ccc(Oc4ccnc(C#N)c4)cc3)nc(N)n2)cc1N [Example 172, 4-(4-{[2-amino-6-(3-amino-4-methoxyphenyl)pyrimidin-4-yl]amino}phenoxy)pyridine-2-carbonitrile] | 500 to 2000
Nc1nc(Nc2ccc(Oc3ccnc(C(F)(F)F)c3)cc2)cc(-c2ccc(O)cc2C(F)(F)F)n1 [Example 176, 4-{2-amino-6-[(4-{[2-(trifluoromethyl)pyridin-4-yl]oxy}phenyl)amino]pyrimidin-4-yl}-3-(trifluoromethyl)phenol] | 500 to 2000

Same assay, conditions: Homo sapiens, HCT-116, 72 h compound exposure, greater than 2 μM

Structure (SMILES) | IC50 [nM]
COC[C@H]1CCCN1c1cc(Oc2cccc(Nc3cc(-c4ccccc4)nc(N)n3)c2)ccn1 [Example 147, N4*-[3-({2-[(2R)-2-(methoxymethyl)pyrrolidin-1-yl]pyridin-4-yl}oxy)phenyl]-6-phenylpyrimidine-2,4-diamine] | > 2000
COc1cc(-c2cc(Nc3ccc(Oc4ccnc(C#N)c4)cc3)nc(N)n2)ccc1NC(=O)OC(C)(C)C [Example 178, tert-butyl {4-[2-amino-6-({4-[(2-cyanopyridin-4-yl)oxy]phenyl}amino)pyrimidin-4-yl]-2-methoxyphenyl}carbamate] | > 2000

Same assay, conditions: Homo sapiens, HCT-116, 72 h compound exposure, less than or equal to 500 nM

Structure (SMILES) | IC50 [nM]
Nc1nc(Nc2ccc(Oc3ccnc(N4CCC[C@H]4CO)c3)cc2)cc(-c2ccccc2)n1 [Example 145, [(2S)-1-(4-{4-[(2-amino-6-phenylpyrimidin-4-yl)amino]phenoxy}pyridin-2-yl)pyrrolidin-2-yl]methanol] | ≤ 500
Nc1nc(Nc2ccc(Oc3ccnc(N4CC[C@@H](O)C4)c3)cc2)cc(-c2ccccc2)n1 [Example 146, (3R)-1-(4-{4-[(2-amino-6-phenylpyrimidin-4-yl)amino]phenoxy}pyridin-2-yl)pyrrolidin-3-ol] | ≤ 500
COc1cc(-c2cc(Nc3ccc(Oc4ccnc(C(F)(F)F)c4)cc3)nc(N)n2)ccc1OC(=O)CNC(=O)OC(C)(C)C [Example 149, 4-{2-amino-6-[(4-{[2-(trifluoromethyl)pyridin-4-yl]oxy}phenyl)amino]pyrimidin-4-yl}-2-methoxyphenyl N-(tert-butoxycarbonyl)glycinate] | ≤ 500
COc1cc(-c2cc(Nc3ccc(Oc4ccnc(C(F)(F)F)c4)cc3)nc(N)n2)ccc1OC(=O)CN [Example 150, 4-{2-amino-6-[(4-{[2-(trifluoromethyl)pyridin-4-yl]oxy}phenyl)amino]pyrimidin-4-yl}-2-methoxyphenyl glycinate hydrochloride] | ≤ 500
COc1cc(-c2cc(Nc3ccc(Oc4ccnc(C(F)(F)F)c4)cc3)nc(N)n2)ccc1N [Example 153, 6-(4-amino-3-methoxyphenyl)-N4*-(4-{[2-(trifluoromethyl)pyridin-4-yl]oxy}phenyl) pyrimidine-2,4-diamine] | ≤ 500
Cc1ccccc1-c1cc(Nc2ccc(Oc3ccnc(CN)c3)cc2)nc(N)n1 [Example 154, N4*-(4-{[2-(aminomethyl)pyridin-4-yl]oxy}phenyl)-6-(2-methylphenyl) pyrimidine-2,4-diamine] | ≤ 500
Nc1nc(Nc2ccc(Oc3ccnc(C(F)(F)F)c3)cc2)cc(-c2ccccc2C(F)(F)F)n1 [Example 155, 6-[2-(trifluoromethyl)phenyl]-N4*-(4-{[2-(trifluoromethyl)pyridin-4-yl]oxy}phenyl)pyrimidine-2,4-diamine] | ≤ 500
CCc1ccccc1-c1cc(Nc2ccc(Oc3ccnc(C(F)(F)F)c3)cc2)nc(N)n1 [Example 156, 6-(2-ethylphenyl)-N4*-(4-{[2-(trifluoromethyl)pyridin-4-yl]oxy}phenyl) pyrimidine-2,4-diamine] | ≤ 500
CCOc1ccccc1-c1cc(Nc2ccc(Oc3ccnc(C(F)(F)F)c3)cc2)nc(N)n1 [Example 157, 6-(2-ethoxyphenyl)-N4*-(4-{[2-(trifluoromethyl)pyridin-4-yl]oxy}phenyl) pyrimidine-2,4-diamine] | ≤ 500
Cc1ccc(F)c(-c2cc(Nc3ccc(Oc4ccnc(C(F)(F)F)c4)cc3)nc(N)n2)c1 [Example 158, 6-(2-fluoro-5-methylphenyl)-N4*-(4-{[2-(trifluoromethyl)pyridin-4-yl]oxy}phenyl)pyrimidine-2,4-diamine] | ≤ 500
Nc1nc(Nc2ccc(Oc3ccnc(C(F)(F)F)c3)cc2)cc(-c2cccc(F)c2F)n1 [Example 159, 6-(2,3-difluorophenyl)-N4*-(4-{[2-(trifluoromethyl)pyridin-4-yl]oxy}phenyl)pyrimidine-2,4-diamine] | ≤ 500
Nc1nc(Nc2ccc(Oc3ccnc(C(F)(F)F)c3)cc2)cc(-c2cc(F)ccc2F)n1 [Example 160, 6-(2,5-difluorophenyl)-N4*-(4-{[2-(trifluoromethyl)pyridin-4-yl]oxy}phenyl)pyrimidine-2,4-diamine] | ≤ 500
Nc1nc(Nc2ccc(Oc3ccnc(C(F)(F)F)c3)cc2)cc(-c2ccccc2OC(F)(F)F)n1 [Example 161, 6-[2-(trifluoromethoxy)phenyl]-N4*-(4-{[2-(trifluoromethyl)pyridin-4-yl]oxy}phenyl)pyrimidine-2,4-diamine] | ≤ 500
CC(C)c1ccccc1-c1cc(Nc2ccc(Oc3ccnc(C(F)(F)F)c3)cc2)nc(N)n1 [Example 162, 6-(2-isopropylphenyl)-N4*- (4-{[2-(trifluoromethyl)pyridin-4-yl]oxy}phenyl) pyrimidine-2,4-diamine] | ≤ 500
CCc1ccccc1-c1cc(Nc2ccc(Oc3ccnc(CN)c3)cc2)nc(N)n1 [Example 163, N4*-(4-{[2-(aminomethyl)pyridin-4-yl]oxy}phenyl)-6-(2-ethylphenyl)pyrimidine-2,4-diamine] | ≤ 500
Nc1ccc(-c2cc(Nc3ccc(Oc4ccnc(C(F)(F)F)c4)cc3)nc(N)n2)cc1 [Example 164, 6-(4-aminophenyl)-N4*-(4-{[2-(trifluoromethyl)pyridin-4-yl]oxy}phenyl) pyrimidine-2,4-diamine hydrochloride] | ≤ 500
COc1cc(-c2cc(Nc3ccc(Oc4ccnc(C(F)(F)F)c4)cc3)nc(N)n2)ccc1O [Example 166, 4-{2-amino-6-[(4-{[2-(trifluoromethyl)pyridin-4-yl]oxy}phenyl)amino]pyrimidin-4-yl}-2-methoxyphenol] | ≤ 500
Nc1nc(Nc2ccc(Oc3ccnc(C(F)(F)F)c3)cc2)cc(-c2cccc(O)c2)n1 [Example 167, 3-{2-amino-6-[(4-{[2-(trifluoromethyl)pyridin-4-yl]oxy}phenyl)amino]pyrimidin-4-yl}phenol] | ≤ 500
COc1ccc(-c2cc(Nc3ccc(Oc4ccnc(C(F)(F)F)c4)cc3)nc(N)n2)cc1N [Example 168, 6-(3-amino-4-methoxyphenyl)-N4*-(4-{[2-(trifluoromethyl)pyridin-4-yl]oxy}phenyl) pyrimidine-2,4-diamine] | ≤ 500
Nc1cccc(-c2cc(Nc3ccc(Oc4ccnc(C(F)(F)F)c4)cc3)nc(N)n2)c1 [Example 170, 6-(3-aminophenyl)-N4*-(4-{[2-(trifluoromethyl)pyridin-4-yl]oxy}phenyl) pyrimidine-2,4-diamine hydrochloride] | ≤ 500
COc1cc(-c2cc(Nc3ccc(Oc4ccnc(C#N)c4)cc3)nc(N)n2)ccc1O [Example 171, 4-(4-{[2-amino-6-(4-hydroxy-3-methoxyphenyl)pyrimidin-4-yl]amino}phenoxy)pyridine-2-carbonitrile] | ≤ 500
COc1cc(-c2cc(Nc3ccc(Oc4ccnc(C(N)=O)c4)cc3)nc(N)n2)ccc1N [Example 173, 4-(4-{[2-amino-6-(4-amino-3-methoxyphenyl)pyrimidin-4-yl]amino}phenoxy)pyridine-2-carboxamide] | ≤ 500
Cc1cc(O)ccc1-c1cc(Nc2ccc(Oc3ccnc(C(F)(F)F)c3)cc2)nc(N)n1 [Example 174, 4-{2-amino-6-[(4-{[2-(trifluoromethyl)pyridin-4-yl]oxy}phenyl)amino]pyrimidin-4-yl}-3-methylphenol] | ≤ 500
Nc1nc(Nc2ccc(Oc3ccnc(C(F)(F)F)c3)cc2)cc(-c2ccccc2CO)n1 [Example 175, (2-{2-amino-6-[(4-{[2-(trifluoromethyl)pyridin-4-yl]oxy}phenyl)amino]pyrimidin-4-yl}phenyl) methanol] | ≤ 500
Nc1nc(Nc2ccc(Oc3ccnc(C(F)(F)F)c3)cc2)cc(-c2ccc(N)c(F)c2)n1 [Example 177, 6-(4-amino-3-fluorophenyl)-N4*-(4-{[2-(trifluoromethyl)pyridin-4-yl]oxy}phenyl)pyrimidine-2,4-diamine] | ≤ 500
Cc1cc(-c2cc(Nc3ccc(Oc4ccnc(C(F)(F)F)c4)cc3)nc(N)n2)ccc1N [Example 180, 6-(4-amino-3-methylphenyl)-N4*-(4-{[2-(trifluoromethyl)pyridin-4-yl]oxy}phenyl)pyrimidine-2,4-diamine] | ≤ 500
Nc1ccc(-c2cc(Nc3ccc(Oc4ccnc(C(F)(F)F)c4)cc3)nc(N)n2)cn1 [Example 181, 6-(6-aminopyridin-3-yl)-N4*-(4-{[2-(trifluoromethyl)pyridin-4-yl]oxy}phenyl)pyrimidine-2,4-diamine] | ≤ 500
N#Cc1cc(Oc2ccc(Nc3cc(-c4ccc(N)nc4)nc(N)n3)cc2)ccn1 [Example 183, 4-(4-{[2-amino-6-(6-aminopyridin-3-yl)pyrimidin-4-yl]amino}phenoxy)pyridine-2-carbonitrile] | ≤ 500
COc1cc(-c2cc(Nc3ccc(Oc4ccnc(C(F)(F)F)c4)cc3)nc(N)n2)ccc1OS(N)(=O)=O [Example 185, 4-{2-amino-6-[(4-{[2-(trifluoromethyl)pyridin-4-yl]oxy}phenyl)amino]pyrimidin-4-yl}-2-methoxyphenyl sulfamate] | ≤ 500
